Reference: patent publication US11149046B2, “Antibacterial sideromycins” (Hsiri Therapeutics, Inc., priority 2014, dated 2021)
In brackets after ≈: the same amount, converted by molar mass. Several values for one entry are separate records, joined by “and”; a condition that tells them apart may be missing. Equal values may be shown once. Entries after “also recorded” stand apart in the source; their conditions may differ. Read-outs that look alike come from different tables or passages of the source.

What was measured:
[1] = test system: P. aeruginosa KW799/61 (permeability mutant); assay: microbe, parasite or virus in culture; assay type: cell-based, Pseudomonas aeruginosa
From the text: (§1) MIC (minimum inhibition concentration) is given in μM and AD (agar diffusion zones of inhibition are given in mm from Kirby-Bauer Petri dish growth inhibition studies).

S. aureus SG511 = assay: MIC determination; assay type: cell-based; details: iron deficient media
M. vaccae IMET-10760 = assay: MIC determination; assay type: cell-based; details: iron deficient media
M. luteus ATCC-10240 = assay: MIC determination; assay type: cell-based; details: iron deficient media
E. coli DC0 [2] = assay: MIC determination; assay type: cell-based; details: for MIC: Escherichia coli
From the text: (§2) Table 3 that was included in the first Example 4 section provides antibacterial data for the first synthetic sideromycins we prepared and studied. The second Example 4 section elaborated and expanded on that data with inclusion of representative antibacterial data in the text and associated pictures of Petri dish assays. MIC (minimum inhibition concentration) is given in μM and AD (agar diffusion zones of inhibition are given in mm from Kirby-Bauer Petri dish growth inhibition studies).

[3] = test system: E. coli DC2 (permeability mutant); assay: MIC determination; assay type: cell-based
From the text: as §2

A. baumannii ATCC 17961 = assay: MIC determination; assay type: cell-based, Acinetobacter baumannii
From the text: as §2

B. subtilis ATCC-6633 = assay: MIC determination; assay type: cell-based; details: iron deficient media
P. aeruginosa KW799/wt = assay: MIC determination; assay type: cell-based, Pseudomonas aeruginosa; details: for MIC: Pseudomonas aeruginosa, KW799/WT
From the text: as §2

E. coli DC0 [4] = assay: Agar diffusion (Kirby-Bauer) assay; assay type: cell-based; details: Table 5
From the text: as §2

[5] = test system: Pseudomonas aeruginosa KW799/wt; assay: Agar diffusion (Kirby-Bauer) assay; assay type: cell-based; details: wild type Pseudomonas; FIG. 8, 9, 12; listed as YML-1-18
From the text: as §2

E. coli DC2 = assay: Agar diffusion (Kirby-Bauer) assay; assay type: cell-based; details: Table 5
From the text: as §2

[6] = test system: Pseudomonas aeruginosa 01 (Pa01); assay: MIC determination; assay type: cell-based; details: Pseudomonas aeruginosa
From the text: as §2

[7] = test system: Pa-Da-1304 CF patient isolate; assay: MIC determination; assay type: cell-based, Pseudomonas aeruginosa; details: Pseudomonas aeruginosa
From the text: as §1
We obtained a clinical isolate of Pseudomonas from a cystic fibrosis patient.

Pa4 = assay: MIC determination; assay type: cell-based, Pseudomonas aeruginosa; details: Pseudomonas aeruginosa; Table 5
From the text: as §2

[8] = test system: Acinetobacter baumannii ATCC 17961; assay: Agar diffusion (Kirby-Bauer) assay, with and without hydrogel; assay type: cell-based; details: Acinetobacter; FIG. 8, 9, 10
From the text: as §2
We investigated whether the sideromycin absorbed in the gel be able to diffuse out of the gel and into the agar to effect antibacterial growth. As a control, the sideromycin alone, without gel, was added in a separate 9 mm well, as usual.
The second question was whether the sideromycin continue to be released and be able to effect bacterial growth inhibition over extended periods. Thus, additional identical agar plates were prepared and stored at 4° C. for 24, 48 and 72 hours to allow diffusion of the sideromycin (control and gel forms) into the agar before allowing the bacteria to grow in an incubator. Then after each time period, the Petri dishes were incubated at 37° C. for 20 hours to promote bacteria growth in the agar. […] The study has been extended to as long as 168 hours (one week) with retention of antibiotic effectiveness.

Pa6 = assay: MIC determination; assay type: cell-based, Pseudomonas aeruginosa; details: Pseudomonas aeruginosa; Table 5; read-out: MIC
From the text: as §1

Acinetobacter = assay: Murine Survival Experiment with Acinetobacter; assay type: in vivo; details: 50 mg/kg IV at +30 min and +4 hr
Procedure: In vivo data for murine survival with Acinetobacter is shown in Table 9 below and graphically in FIG. 14. In the experiments, 10^8 Acinetobacter was administered IP at time 0 on Day 1, and antibiotic was administered twice IV at +30 min and +4 hr

[9] = Animal tolerability study (NOAEL) in healthy mice; assay type: in vivo; details: 24 hour study
Procedure: With the easily formulated sideromycin in hand, we profiled sideromycin safety in healthy mice. Thus, sideromycin YML-I-115 was tested in healthy mice to determine its No-observed-adverse-effect level (NOAEL). We dosed the mice with YML-I-115 (the sodium salt) at 1 mg/kg, 20 mg/kg, 50 mg/kg, and 100 mg/kg through IV injection of the compound. […] Higher dosage animal experiments have been scheduled to determine the upper limit of the NOAEL value.

P. aeruginosa Pa6 = assay: Agar diffusion assay; assay type: cell-based, Pseudomonas aeruginosa; details: M-HII media; 0.5 mM (ciprofloxacin 5 μg/ml), 50 uL per well, 37° C. 20 hrs; P unclear, V very unclear zone
Procedure: (§3) Antibiotic activity was determined using agar diffusion assays against representative Gram-negative bacteria, including Pseudomonas aeruginosa (Pa6), and several multidrug resistant forms of Acinetobacter baumannii. Representative results are shown in Table 1 and a corresponding picture of an actual petri dish showing the agar diffusion results (FIG. 4). […]. [table]

A. baumannii BAA 1797 = assay: Agar diffusion assay; assay type: cell-based, Acinetobacter baumannii; details: M-HII media; 0.5 mM (ciprofloxacin 5 μg/ml), 50 uL per well, 37° C. 20 hrs; P unclear zone
Procedure: as §3

A. baumannii BAA 1793 = assay: Agar diffusion assay; assay type: cell-based, Acinetobacter baumannii; details: M-HII media; 0.5 mM (ciprofloxacin 5 μg/ml), 50 uL per well, 37° C. 20 hrs; P unclear zone
Procedure: as §3

A. baumannii BAA 1800 = assay: Agar diffusion assay; assay type: cell-based, Acinetobacter baumannii; details: M-HII media; 0.5 mM (ciprofloxacin 5 μg/ml), 50 uL per well, 37° C. 20 hrs
Procedure: as §3

A. baumannii BAA 1710 = assay: Agar diffusion assay; assay type: cell-based, Acinetobacter baumannii; details: M-HII media; 0.5 mM (ciprofloxacin 5 μg/ml), 50 uL per well, 37° C. 20 hrs; P unclear zone
Procedure: as §3

S. Aureus ISR-002 = assay: MIC determination; assay type: cell-based; details: Staphylococcus aureus; Table 2; read-out: in vitro activity (MIC)
A. baumannii ARC 3486 = assay: MIC determination; assay type: cell-based; details: Acinetobacter baumannii, ARC3486; Table 2; read-out: in vitro activity (MIC)
A. baumannii ISR 14-0061 = assay: MIC determination; assay type: cell-based; details: Acinetobacter baumannii, ISR140061; Table 2; read-out: in vitro activity (MIC)
[10] = test system: strains of Pseudomonas and Acinetobacter; assay: Antibacterial activity, general statements; assay type: cell-based; details: general statements of the text
Procedure: Antibiotic activity was determined using agar diffusion assays against representative Gram-negative bacteria, including Pseudomonas aeruginosa (Pa6), and several multidrug resistant forms of Acinetobacter baumannii. Representative results are shown in Table 1 and a corresponding picture of an actual petri dish showing the agar diffusion results (FIG. 4). […].

[11] = test system: Burkholderia multivorans AU0100; assay: MIC determination; assay type: cell-based; details: Table 2, read-out: in vitro activity (MIC)
S. Aureus ISR 14-001 = assay: MIC determination; assay type: cell-based; details: Staphylococcus aureus; Table 2; read-out: in vitro activity (MIC)
[12] = iron deficient media, read-out: MIC in Fe(−)MHII Media

## CC(=O)Oc1cccc(C(=O)NCCCCN(CC(=O)NC(C(=O)NC2C(=O)N3C2SC(C)(C)C3C(=O)[O-])c2ccccc2)C(=O)c2cccc(OC(C)=O)c2OC(C)=O)c1OC(C)=O.[Na+] (centres unmarked) [HKI-9924154]
[1]; iron deficient media
  MIC in Fe(−)MHII Media: 0.13 µg/mL
S. aureus SG511
  MIC in Fe(−)MHII Media: >10 µg/mL
M. vaccae IMET-10760
  MIC in Fe(−)MHII Media: >10 µg/mL
M. luteus ATCC-10240
  MIC in Fe(−)MHII Media: >10 µg/mL
E. coli DC0 [2]; iron deficient media
  MIC in Fe(−)MHII Media: <0.005 µg/mL
[3]; iron deficient media
  MIC in Fe(−)MHII Media: <0.005 µg/mL
A. baumannii ATCC 17961; iron deficient media
  MIC in Fe(−)MHII Media: 0.313 µg/mL
A. baumannii ATCC 17961; [12]
  MIC: 0.34 µM
A. baumannii ATCC 17961; read-out: MIC
  MIC: 0.34 µM
B. subtilis ATCC-6633
  MIC in Fe(−)MHII Media: >10 µg/mL
P. aeruginosa KW799/wt; iron deficient media
  MIC in Fe(−)MHII Media: 0.04 to 0.052 µg/mL

## CC(=O)Oc1cccc(C(=O)NCCCCN(CC(=O)N[C@@H](C(=O)N[C@@H]2C(=O)N3C2SC(C)(C)[C@@H]3C(=O)O)c2ccccc2)C(=O)c2cccc(OC(C)=O)c2OC(C)=O)c1OC(C)=O (some centres unmarked) [YML-I-18]
E. coli DC0 [4]
  AD = agar diffusion inhibition zones: (AD = 32) mm
[5]
  zones of inhibition (in words): impressive zones of inhibition; also recorded: potently active
E. coli DC2
  AD = agar diffusion inhibition zones: (AD = 40) mm
[1]; Pseudomonas aeruginosa, read-out: MIC in Fe(−)MHII Media
  MIC: 0.052 µg/mL (≈ 0.0566 µM)
S. aureus SG511; Staphylococcus aureus, SG511, read-out: MIC in Fe(−)MHII Media
  MIC: > 10 µg/mL
M. vaccae IMET-10760; Mycolicibacterium vaccae, IMET10760, read-out: MIC in Fe(−)MHII Media
  MIC: > 10 µg/mL
M. luteus ATCC-10240; Micrococcus luteus, ATCC10240, read-out: MIC in Fe(−)MHII Media
  MIC: > 10 µg/mL
E. coli DC0 [2]; DC0, iron deficient media, read-out: MIC in Fe(−)MHII Media
  MIC: < 0.005 µg/mL
E. coli DC0 [2]; representative strains of E. coli (entries 4-5, Table 3: DC0, DC2), read-out: MIC
  MIC: < 0.005 µg/mL
[6]; Table 5, read-out: MIC
  MIC: 0.0156 µM (≈ 0.0143 µg/mL)
[3]; Escherichia coli, read-out: MIC in Fe(−)MHII Media
  MIC: < 0.005 µg/mL
A. baumannii ATCC 17961; Acinetobacter baumannii, ATCC17961, iron deficient media, read-out: MIC in Fe(−)MHII Media
  MIC: 0.313 µg/mL
A. baumannii ATCC 17961; Acinetobacter baumannii, ATCC17961, text, read-out: MIC
  MIC: 0.156 µg/mL to 0.313 µg/mL and 0.34 µM
A. baumannii ATCC 17961; iron deficient media, listed as HKI-9924116, read-out: MIC in Fe(−)MHII Media
  MIC: 0.34 µM
A. baumannii ATCC 17961; iron deficient media, listed as YML-1-18, read-out: MIC in Fe(−)MHII Media
  MIC: 0.156 µM
B. subtilis ATCC-6633; Bacillus subtilis, ATCC6633, read-out: MIC in Fe(−)MHII Media
  MIC: > 10 µg/mL
[7]; Table 5
  MIC: 0.4 to 0.75 µM (≈ 0.367 to 0.688 µg/mL)
[7]; clinical isolate from a cystic fibrosis patient
  MIC: 0.4 to 0.75 µM (≈ 0.367 to 0.688 µg/mL)
Pa4
  MIC: 0.03 µM (≈ 0.0275 µg/mL)
P. aeruginosa KW799/wt; Table 5, read-out: MIC
  MIC: 0.0156 to 0.0313 µM (≈ 0.0143 to 0.0287 µg/mL)
P. aeruginosa KW799/wt; [12]
  MIC: 0.0156 µM (≈ 0.0143 µg/mL)
P. aeruginosa KW799/wt; iron deficient media, listed as HKI-9924116
  MIC in Fe(−)MHII Media: (0.0156 μM
P. aeruginosa KW799/wt; several strains of P. aeruginosas (entries 1 and 2, Table 3)
  increase in antibiotic activity over ampicillin: 16000 fold
[8]
  zones of inhibition (in words): impressive zones of inhibition
Pa6
  MIC: > 100 µM

## O=C(CN(CCCCNC(=O)c1cccc(O)c1O)C(=O)c1cccc(O)c1O)NC(C(=O)NC1C(=O)N2C(C(=O)[O-])=C(Cl)CCC12)c1ccccc1.[Na+] (centres unmarked) [YML-I-115]
Acinetobacter; D 1, 10^8 Acinetobacter IP
  murine survival (surviving mice): 6
Acinetobacter; D 2
  murine survival (surviving mice): 6
Acinetobacter; D 3
  murine survival (surviving mice): 6
Acinetobacter; D 4
  murine survival (surviving mice): 6
Acinetobacter; D 5
  murine survival (surviving mice): 6
Acinetobacter; D 6
  murine survival (surviving mice): 6
Acinetobacter; D 7
  murine survival (surviving mice): 6
[9]; 1, 20, 50 and 100 mg/kg IV
  survival and behavior (in words): All the mice survived and none of the mice experienced abnormal behavior
[9]; healthy mice, IV injection
  No-observed-adverse-effect level (NOAEL): 100 mg/kg

## O=C(O)c1cn(C2CC2)c2cc(N3CCNCC3)c(F)cc2c1=O [ciprofloxacin, reference compound]
P. aeruginosa Pa6
  Zone of Growth Inhibition: 0 mm
A. baumannii BAA 1797
  Zone of Growth Inhibition: 0 mm
A. baumannii BAA 1793
  Zone of Growth Inhibition: 0 mm
A. baumannii BAA 1800
  Zone of Growth Inhibition: 0 mm
A. baumannii BAA 1710
  Zone of Growth Inhibition: 0 mm
E. coli DC0 [2]; DC0, Table 2, printed E. coli DCO, read-out: in vitro activity (MIC)
  MIC: 0.2 µM
[6]; Table 2, read-out: in vitro activity (MIC)
  MIC: 0.2 µM (≈ 0.0663 µg/mL)
A. baumannii ATCC 17961; Acinetobacter baumannii, ATCC17961, Table 2, read-out: in vitro activity (MIC)
  MIC: 0.2 µM
S. Aureus ISR-002
  MIC: > 5 µM
A. baumannii ARC 3486
  MIC: > 5 µM
A. baumannii ISR 14-0061
  MIC: > 5 µM
[10]
  antibacterial activity (in words): completely inactive
[11]
  MIC: > 5 µM
S. Aureus ISR 14-001
  MIC: 0.2 µM (≈ 0.0663 µg/mL)
